Laboratory results as given in patent US20190152957A1, “PYRIDIN-3-YL ACETIC ACID DERIVATIVES AS INHIBITORS OF HUMAN IMMUNODEFICIENCY VIRUS REPLICATION” (ViiV HEALTHCARE UK (NO.5) LIMITED, priority 2016, published 2019).

test system: recombinant NL-RLuc virus (HIV NL4-3 with Renilla Luciferase gene) in MT-2 cells; experiment: Inhibition of HIV replication (NL-RLuc virus, luciferase readout in MT-2 cells); assay type: cell-based; settings: MT2, 120 h, read-out: Activity
Source text: Inhibition of HIV Replication:
A recombinant NL-RLuc proviral clone was constructed in which a section of the nef gene from NL4-3 was replaced with the Renilla Luciferase gene. This virus is fully infectious and can undergo multiple cycles of replication in cell culture. In addition, the luciferous reporter provides a simple and easy method for quantitating the extent of virus growth and consequently, the antiviral activity of test compounds. The plasmid pNLRLuc contains the proviral NL-Rluc DNA cloned into pUC18 at the PvuII site. The NL-RLuc virus was prepared by transfection of 293T cells with the plasmid pNLRLuc. Transfections were performed using the LipofectAMINE PLUS kit from Invitrogen (Carlsbad, Calif.) according to the manufacturer and the virus generated was titered in MT-2 cells. For susceptibility analyses, the titrated virus was used to infect MT-2 cells in the presence of compound, and after 5 days of incubation, cells were processed and quantitated for virus growth by the amount of expressed luciferase. Assay media was RPMI 1640 supplemented with 10% heat inactivated fetal bovine serum (FBS), 100 units/ml penicillin G/100 units/ml streptomycin, 10 mM HEPES buffer pH 7.55 and 2 mM L-glutamine. The results from at least 2 experiments were used to calculate the EC50 values. Luciferase was quantitated using the Dual Luciferase kit from Promega (Madison, Wis.). Susceptibility of viruses to compounds was determined by incubation in the presence of serial dilutions of the compound. The 50% effective concentration (EC50) was calculated by using the exponential form of the median effect equation where (Fa)=1/[1+(ED50/drug conc.)^m](Johnson V A, Byington R T. Infectivity Assay. In Techniques in HIV Research. ed. Aldovini A, Walker BD. 71-76. New York: Stockton Press. 1990). Activity equal to A refers to a compound having an EC50≤100 nM, while B and C denote compounds having an EC50 between 100 nM and 1 uM (B) or >1 uM (C).

Compared with `Cc1nc(C)c([C@H](OC(C)(C)C)C(=O)O)c(N2CCC(C)(C)CC2)c1-c1ccc2c(c1)CCN(Cc1nccn1C)C2` [Compound 38, (S)-2-(tert-butoxy)-2-(4-(4,4-dimethylpiperidin-1-yl)-2,6-dimethyl-5-(2-((1-methyl-1H-imidazol-2-yl)methyl)-1,2,3,4-tetrahydroisoquinolin-6-yl)pyridin-3-yl)acetic acid], `Cc1nc(C)c([C@H](OC(C)(C)C)C(=O)O)c(N2CCC(C)(C)CC2)c1-c1ccc2c(c1)CCN(Cc1c[nH]cn1)C2` [Compound 40, (S)-2-(5-(2-((1H-imidazol-4-yl)methyl)-1,2,3,4-tetrahydroisoquinolin-6-yl)-4-(4,4-dimethylpiperidin-1-yl)-2,6-dimethylpyridin-3-yl)-2-(tert-butoxy)acetic acid] is higher in EC50: under 0.1 µM for the first, over 1 µM for the second.

First: Cc1nc[nH]c1CN1CCc2cc(-c3c(C)nc(C)c([C@H](OC(C)(C)C)C(=O)O)c3N3CCC(C)(C)CC3)ccc2C1 [Compound 39, (S)-2-(tert-butoxy)-2-(4-(4,4-dimethylpiperidin-1-yl)-2,6-dimethyl-5-(2-((4-methyl-1H-imidazol-5-yl)methyl)-1,2,3,4-tetrahydroisoquinolin-6-yl)pyridin-3-yl)acetic acid]
Second: Cc1nc(CN2CCc3cc(-c4c(C)nc(C)c([C@H](OC(C)(C)C)C(=O)O)c4N4CCC(C)(C)CC4)ccc3C2)c[nH]1 [Compound 43, (S)-2-(tert-butoxy)-2-(4-(4,4-dimethylpiperidin-1-yl)-2,6-dimethyl-5-(2-((2-methyl-1H-imidazol-4-yl)methyl)-1,2,3,4-tetrahydroisoquinolin-6-yl)pyridin-3-yl)acetic acid]
The EC50 of the first is higher: 0.1 to 1 µM for the first, under 0.1 µM for the second. The second is the more potent here.

`Cc1cccc(-n2cc(CN3CCc4cc(-c5c(C)nc(C)c([C@H](OC(C)(C)C)C(=O)O)c5N5CCC(C)(C)CC5)ccc4C3)cn2)c1` [Compound 41, (S)-2-(tert-butoxy)-2-(4-(4,4-dimethylpiperidin-1-yl)-2,6-dimethyl-5-(2-((1-(m-tolyl)-1H-pyrazol-4-yl)methyl)-1,2,3,4-tetrahydroisoquinolin-6-yl)pyridin-3-yl)acetic acid] and `CCn1cc(CN2CCc3cc(-c4c(C)nc(C)c([C@H](OC(C)(C)C)C(=O)O)c4N4CCC(C)(C)CC4)ccc3C2)cn1` [Compound 44, (S)-2-(tert-butoxy)-2-(4-(4,4-dimethylpiperidin-1-yl)-5-(2-((1-ethyl-1H-pyrazol-4-yl)methyl)-1,2,3,4-tetrahydroisoquinolin-6-yl)-2,6-dimethylpyridin-3-yl)acetic acid] cannot be ordered by EC50: under 0.1 µM for the first, under 0.1 µM for the second.

`Cc1cc(CN2CCc3cc(-c4c(C)nc(C)c([C@H](OC(C)(C)C)C(=O)O)c4N4CCC(C)(C)CC4)ccc3C2)[nH]n1` [Compound 42, (S)-2-(tert-butoxy)-2-(4-(4,4-dimethylpiperidin-1-yl)-2,6-dimethyl-5-(2-((3-methyl-1H-pyrazol-5-yl)methyl)-1,2,3,4-tetrahydroisoquinolin-6-yl)pyridin-3-yl)acetic acid] and `Cc1n[nH]cc1CN1CCc2cc(-c3c(C)nc(C)c([C@H](OC(C)(C)C)C(=O)O)c3N3CCC(C)(C)CC3)ccc2C1` [Compound 53, (S)-2-(tert-butoxy)-2-(4-(4,4-dimethylpiperidin-1-yl)-2,6-dimethyl-5-(2-((3-methyl-1H-pyrazol-4-yl)methyl)-1,2,3,4-tetrahydroisoquinolin-6-yl)pyridin-3-yl)acetic acid] cannot be ordered by EC50: under 0.1 µM for the first, under 0.1 µM for the second.

`Cc1nc(C)c([C@H](OC(C)(C)C)C(=O)O)c(N2CCC(C)(C)CC2)c1-c1ccc2c(c1)CCN(Cc1cccnc1OC(C)C)C2` [Compound 45, (S)-2-(tert-butoxy)-2-(4-(4,4-dimethylpiperidin-1-yl)-5-(2-((2-isopropoxypyridin-3-yl)methyl)-1,2,3,4-tetrahydroisoquinolin-6-yl)-2,6-dimethylpyridin-3-yl)acetic acid] and `COc1ccc(CN2CCc3cc(-c4c(C)nc(C)c([C@H](OC(C)(C)C)C(=O)O)c4N4CCC(C)(C)CC4)ccc3C2)cn1` [Compound 47, (S)-2-(tert-butoxy)-2-(4-(4,4-dimethylpiperidin-1-yl)-5-(2-((6-methoxypyridin-3-yl)methyl)-1,2,3,4-tetrahydroisoquinolin-6-yl)-2,6-dimethylpyridin-3-yl)acetic acid] cannot be ordered by EC50: under 0.1 µM for the first, under 0.1 µM for the second.

`Cc1nc(C)c([C@H](OC(C)(C)C)C(=O)O)c(N2CCC(C)(C)CC2)c1-c1ccc2c(c1)CCN(Cc1nnn[nH]1)C2` [Compound 46, (S)-2-(5-(2-((1H-tetrazol-5-yl)methyl)-1,2,3,4-tetrahydroisoquinolin-6-yl)-4-(4,4-dimethylpiperidin-1-yl)-2,6-dimethylpyridin-3-yl)-2-(tert-butoxy)acetic acid] and `Cc1nc(C)c([C@H](OC(C)(C)C)C(=O)O)c(N2CCC(C)(C)CC2)c1-c1ccc2c(c1)CCN(Cc1[nH]nnc1[Si](C)(C)C)C2` [Compound 51, (S)-2-(tert-butoxy)-2-(4-(4,4-dimethylpiperidin-1-yl)-2,6-dimethyl-5-(2-((4-(trimethylsilyl)-1H-1,2,3-triazol-5-yl)methyl)-1,2,3,4-tetrahydroisoquinolin-6-yl)pyridin-3-yl)acetic acid] cannot be ordered by EC50: under 0.1 µM for the first, under 0.1 µM for the second.

`COc1ncc(CN2CCc3cc(-c4c(C)nc(C)c([C@H](OC(C)(C)C)C(=O)O)c4N4CCC(C)(C)CC4)ccc3C2)c(OC)n1` [Compound 48, (S)-2-(tert-butoxy)-2-(5-(2-((2,4-dimethoxypyrimidin-5-yl)methyl)-1,2,3,4-tetrahydroisoquinolin-6-yl)-4-(4,4-dimethylpiperidin-1-yl)-2,6-dimethylpyridin-3-yl)acetic acid] and `COc1ccc(CN2CCc3cc(-c4c(C)nc(C)c([C@H](OC(C)(C)C)C(=O)O)c4N4CCC(C)(C)CC4)ccc3C2)c(OC)n1` [Compound 49, (S)-2-(tert-butoxy)-2-(5-(2-((2,6-dimethoxypyridin-3-yl)methyl)-1,2,3,4-tetrahydroisoquinolin-6-yl)-4-(4,4-dimethylpiperidin-1-yl)-2,6-dimethylpyridin-3-yl)acetic acid] cannot be ordered by EC50: under 0.1 µM for the first, under 0.1 µM for the second.

First: Cc1nc(C)c([C@H](OC(C)(C)C)C(=O)O)c(N2CCC(C)(C)CC2)c1-c1ccc2c(c1)CCN(Cc1cn[nH]c1)C2 [Compound 50, (S)-2-(5-(2-((1H-pyrazol-4-yl)methyl)-1,2,3,4-tetrahydroisoquinolin-6-yl)-4-(4,4-dimethylpiperidin-1-yl)-2,6-dimethylpyridin-3-yl)-2-(tert-butoxy)acetic acid]
Second: Cc1nc(C)c([C@H](OC(C)(C)C)C(=O)O)c(N2CCC(C)(C)CC2)c1-c1ccc2c(c1)CCN(Cc1ccc(=O)[nH]c1)C2 [Compound 52, (S)-2-(tert-butoxy)-2-(4-(4,4-dimethylpiperidin-1-yl)-2,6-dimethyl-5-(2-((6-oxo-1,6-dihydropyridin-3-yl)methyl)-1,2,3,4-tetrahydroisoquinolin-6-yl)pyridin-3-yl)acetic acid]
The EC50 of the first is lower: under 0.1 µM for the first, 0.1 to 1 µM for the second.

First: Cc1nn(C)c(Cl)c1CN1CCc2cc(-c3c(C)nc(C)c([C@H](OC(C)(C)C)C(=O)O)c3N3CCC(C)(C)CC3)ccc2C1 [Compound 54, (S)-2-(tert-butoxy)-2-(5-(2-((5-chloro-1,3-dimethyl-1H-pyrazol-4-yl)methyl)-1,2,3,4-tetrahydroisoquinolin-6-yl)-4-(4,4-dimethylpiperidin-1-yl)-2,6-dimethylpyridin-3-yl)acetic acid]
Second: CCN1CCc2cc(-c3c(C)nc(C)c([C@H](OC(C)(C)C)C(=O)O)c3N3CCC(C)(C)CC3)ccc2C1 [Compound 55, (S)-2-(tert-butoxy)-2-(4-(4,4-dimethylpiperidin-1-yl)-5-(2-ethyl-1,2,3,4-tetrahydroisoquinolin-6-yl)-2,6-dimethylpyridin-3-yl)acetic acid]
The EC50 of the first is lower: under 0.1 µM for the first, 0.1 to 1 µM for the second. The first is the more potent here.

same assay, conditions: MT2, 120 h, read-out: EC50 μM

First: Cc1nc[nH]c1CN1CCc2cc(-c3c(C)nc(C)c([C@H](OC(C)(C)C)C(=O)O)c3N3CCC(C)(C)CC3)ccc2C1 [Compound 39, (S)-2-(tert-butoxy)-2-(4-(4,4-dimethylpiperidin-1-yl)-2,6-dimethyl-5-(2-((4-methyl-1H-imidazol-5-yl)methyl)-1,2,3,4-tetrahydroisoquinolin-6-yl)pyridin-3-yl)acetic acid]
Second: Cc1n[nH]cc1CN1CCc2cc(-c3c(C)nc(C)c([C@H](OC(C)(C)C)C(=O)O)c3N3CCC(C)(C)CC3)ccc2C1 [Compound 53, (S)-2-(tert-butoxy)-2-(4-(4,4-dimethylpiperidin-1-yl)-2,6-dimethyl-5-(2-((3-methyl-1H-pyrazol-4-yl)methyl)-1,2,3,4-tetrahydroisoquinolin-6-yl)pyridin-3-yl)acetic acid]
The EC50 of the first is 3.8-fold higher: 0.231 µM for the first, 0.061 µM for the second. The second is the more potent here.

With `COc1ccc(CN2CCc3cc(-c4c(C)nc(C)c([C@H](OC(C)(C)C)C(=O)O)c4N4CCC(C)(C)CC4)ccc3C2)cn1` [Compound 47, (S)-2-(tert-butoxy)-2-(4-(4,4-dimethylpiperidin-1-yl)-5-(2-((6-methoxypyridin-3-yl)methyl)-1,2,3,4-tetrahydroisoquinolin-6-yl)-2,6-dimethylpyridin-3-yl)acetic acid] the EC50 was 0.002 µM.
